Assay [1] concerns the target Beta-1 adrenergic receptor (Homo sapiens, UniProt P08588). Format: functional.
Assay [2] concerns the target T1, Alpha-2A adrenergic receptor (Homo sapiens, UniProt P08913).
T1 sequence (P08913 whole entry): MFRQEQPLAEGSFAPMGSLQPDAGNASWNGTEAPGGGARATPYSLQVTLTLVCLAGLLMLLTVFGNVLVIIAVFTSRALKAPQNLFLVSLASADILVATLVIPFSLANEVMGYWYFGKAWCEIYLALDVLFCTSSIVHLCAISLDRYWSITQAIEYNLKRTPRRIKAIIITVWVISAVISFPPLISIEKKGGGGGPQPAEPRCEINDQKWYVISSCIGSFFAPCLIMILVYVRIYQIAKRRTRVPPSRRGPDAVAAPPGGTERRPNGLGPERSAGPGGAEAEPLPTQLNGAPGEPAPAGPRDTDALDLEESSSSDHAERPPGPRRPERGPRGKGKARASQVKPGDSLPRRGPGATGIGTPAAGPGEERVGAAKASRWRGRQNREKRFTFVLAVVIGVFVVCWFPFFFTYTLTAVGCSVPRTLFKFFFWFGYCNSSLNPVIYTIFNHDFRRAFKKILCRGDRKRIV
Format: functional, cell-based.

The target of assay [3] is Growth hormone secretagogue receptor type 1 (Homo sapiens, UniProt Q92847).
Chain of Growth hormone secretagogue receptor type 1 (Q92847 whole entry): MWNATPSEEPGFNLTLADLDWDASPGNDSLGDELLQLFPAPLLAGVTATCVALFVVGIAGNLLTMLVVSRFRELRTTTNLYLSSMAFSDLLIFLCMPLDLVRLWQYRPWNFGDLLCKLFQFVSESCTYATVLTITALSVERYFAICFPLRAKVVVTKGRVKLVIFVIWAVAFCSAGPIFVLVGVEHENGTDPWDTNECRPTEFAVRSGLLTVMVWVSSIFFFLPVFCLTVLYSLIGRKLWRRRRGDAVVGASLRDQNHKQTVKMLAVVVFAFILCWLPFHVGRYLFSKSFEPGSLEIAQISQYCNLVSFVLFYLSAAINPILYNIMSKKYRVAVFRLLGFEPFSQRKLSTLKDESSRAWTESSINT
Assay [4] addresses Gamma-aminobutyric acid receptor subunit alpha-1 (Rattus norvegicus, UniProt P62813).
The target in assay [5] is Delta-type opioid receptor (Homo sapiens, UniProt P41143).
Chain of Delta-type opioid receptor (P41143 whole entry): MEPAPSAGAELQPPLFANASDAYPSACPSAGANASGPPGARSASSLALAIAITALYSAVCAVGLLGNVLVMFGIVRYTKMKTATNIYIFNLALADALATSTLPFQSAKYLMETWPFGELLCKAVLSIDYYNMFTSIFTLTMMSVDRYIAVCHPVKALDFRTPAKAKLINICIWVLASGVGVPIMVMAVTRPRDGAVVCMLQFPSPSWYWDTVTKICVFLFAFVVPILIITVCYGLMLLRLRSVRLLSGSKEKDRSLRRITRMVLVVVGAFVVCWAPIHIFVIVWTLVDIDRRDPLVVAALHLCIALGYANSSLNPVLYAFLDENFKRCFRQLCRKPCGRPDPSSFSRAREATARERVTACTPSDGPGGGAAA
The target of assay [6] is Vasopressin V2 receptor (Homo sapiens, UniProt P30518).
Chain of Vasopressin V2 receptor (P30518 whole entry): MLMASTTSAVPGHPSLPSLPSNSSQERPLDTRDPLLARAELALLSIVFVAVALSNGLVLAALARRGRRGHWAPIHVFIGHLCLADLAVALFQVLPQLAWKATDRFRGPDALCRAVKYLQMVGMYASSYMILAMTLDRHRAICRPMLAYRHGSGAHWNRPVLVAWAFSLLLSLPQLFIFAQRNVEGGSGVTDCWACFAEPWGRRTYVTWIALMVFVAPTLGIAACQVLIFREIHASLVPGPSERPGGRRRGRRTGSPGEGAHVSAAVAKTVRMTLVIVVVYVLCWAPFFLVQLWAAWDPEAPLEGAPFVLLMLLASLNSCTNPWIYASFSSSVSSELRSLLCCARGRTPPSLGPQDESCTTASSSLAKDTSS
In assay [7] the target is Glutamate receptor ionotropic, NMDA 1 (Rattus norvegicus, UniProt P35439).
In assay [8] the target is 3',5'-cyclic-AMP phosphodiesterase 4D (Homo sapiens, UniProt Q08499). Format: functional.
Chain of 3',5'-cyclic-AMP phosphodiesterase 4D (Q08499 whole entry): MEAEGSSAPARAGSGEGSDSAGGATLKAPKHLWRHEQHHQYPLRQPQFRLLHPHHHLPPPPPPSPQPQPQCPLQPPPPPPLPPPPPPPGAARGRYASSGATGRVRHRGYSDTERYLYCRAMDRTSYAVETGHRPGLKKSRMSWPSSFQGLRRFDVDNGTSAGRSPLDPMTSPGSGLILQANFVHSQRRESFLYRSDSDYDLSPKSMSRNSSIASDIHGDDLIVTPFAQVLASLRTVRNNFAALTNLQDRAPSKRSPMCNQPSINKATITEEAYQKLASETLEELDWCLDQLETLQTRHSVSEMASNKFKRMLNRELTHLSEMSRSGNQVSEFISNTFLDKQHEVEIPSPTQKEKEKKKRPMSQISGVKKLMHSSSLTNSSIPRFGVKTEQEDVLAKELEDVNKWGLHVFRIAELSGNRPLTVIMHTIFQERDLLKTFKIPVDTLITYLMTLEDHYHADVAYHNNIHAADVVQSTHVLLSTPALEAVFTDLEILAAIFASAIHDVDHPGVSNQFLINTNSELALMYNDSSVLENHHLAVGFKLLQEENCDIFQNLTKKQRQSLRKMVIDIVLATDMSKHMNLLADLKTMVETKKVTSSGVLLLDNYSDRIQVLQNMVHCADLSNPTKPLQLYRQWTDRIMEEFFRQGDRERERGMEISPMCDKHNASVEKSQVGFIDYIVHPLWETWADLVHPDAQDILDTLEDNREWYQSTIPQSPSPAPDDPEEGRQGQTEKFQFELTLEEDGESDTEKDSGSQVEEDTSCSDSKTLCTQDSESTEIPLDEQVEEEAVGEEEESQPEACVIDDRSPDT
Assay [9] has as its target T2, Muscarinic acetylcholine receptor M2 (Homo sapiens, UniProt P08172).
T2 sequence (P08172 whole entry): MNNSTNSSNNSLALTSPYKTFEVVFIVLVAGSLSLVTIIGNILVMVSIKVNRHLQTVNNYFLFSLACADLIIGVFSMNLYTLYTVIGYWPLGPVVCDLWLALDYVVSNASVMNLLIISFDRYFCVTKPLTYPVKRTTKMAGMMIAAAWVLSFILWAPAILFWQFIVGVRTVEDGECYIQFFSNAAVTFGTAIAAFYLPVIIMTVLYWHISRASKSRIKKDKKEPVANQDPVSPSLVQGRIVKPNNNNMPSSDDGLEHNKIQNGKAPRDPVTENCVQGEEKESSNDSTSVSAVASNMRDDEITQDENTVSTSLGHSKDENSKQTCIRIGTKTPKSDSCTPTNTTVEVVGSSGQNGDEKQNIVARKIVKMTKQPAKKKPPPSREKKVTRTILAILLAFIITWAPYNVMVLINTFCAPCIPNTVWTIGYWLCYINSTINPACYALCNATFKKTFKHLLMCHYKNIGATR
Format: functional, cell-based.

Assay [10] addresses Voltage-gated inwardly rectifying potassium channel KCNH2 (Homo sapiens, UniProt Q12809). Format: functional.
Assay [11] deals with T2, Muscarinic acetylcholine receptor M2. Format: functional, cell-based. The source holds these as a separate data set.
Assay [12] concerns the target T3, Equilibrative nucleoside transporter 1 (Homo sapiens, UniProt Q99808).
T3 sequence (Q99808 whole entry): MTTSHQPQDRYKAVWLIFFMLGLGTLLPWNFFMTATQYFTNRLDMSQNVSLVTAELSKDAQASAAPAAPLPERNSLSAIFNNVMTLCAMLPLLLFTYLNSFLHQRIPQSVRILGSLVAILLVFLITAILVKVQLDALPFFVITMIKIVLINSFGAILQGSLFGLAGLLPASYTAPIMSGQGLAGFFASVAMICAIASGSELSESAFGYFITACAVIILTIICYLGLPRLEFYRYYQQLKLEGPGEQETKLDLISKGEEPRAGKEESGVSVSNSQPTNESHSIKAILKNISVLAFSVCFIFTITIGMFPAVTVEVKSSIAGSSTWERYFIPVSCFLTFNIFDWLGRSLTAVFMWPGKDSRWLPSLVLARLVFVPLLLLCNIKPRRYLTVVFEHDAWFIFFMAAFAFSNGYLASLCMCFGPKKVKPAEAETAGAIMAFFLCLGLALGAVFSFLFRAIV

In assay [13] the target is T4, Cholecystokinin receptor type A (Homo sapiens, UniProt P32238).
T4 sequence (P32238 whole entry): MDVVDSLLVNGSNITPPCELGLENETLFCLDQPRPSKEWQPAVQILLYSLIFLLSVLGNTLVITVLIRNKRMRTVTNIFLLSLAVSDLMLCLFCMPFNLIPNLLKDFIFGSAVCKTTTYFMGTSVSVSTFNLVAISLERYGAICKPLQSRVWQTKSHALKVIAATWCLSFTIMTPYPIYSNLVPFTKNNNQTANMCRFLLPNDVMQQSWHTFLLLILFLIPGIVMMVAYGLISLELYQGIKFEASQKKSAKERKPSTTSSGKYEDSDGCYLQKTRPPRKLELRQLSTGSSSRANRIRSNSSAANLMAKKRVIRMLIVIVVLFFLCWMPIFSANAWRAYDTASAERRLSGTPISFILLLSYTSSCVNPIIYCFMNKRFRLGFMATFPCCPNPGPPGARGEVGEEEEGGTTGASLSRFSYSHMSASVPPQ

Assay [14] has as its target 5-hydroxytryptamine receptor 2B (Homo sapiens, UniProt P41595). Format: functional, cell-based.

In general, AC50 refers to the midpoint of the concentration-response curve, whichever way the signal moves. Low values mean activity at low concentration, high ones activity only at high concentration.
Note: assay procedure not described here.

Chain of 5-hydroxytryptamine receptor 2B (P41595 whole entry): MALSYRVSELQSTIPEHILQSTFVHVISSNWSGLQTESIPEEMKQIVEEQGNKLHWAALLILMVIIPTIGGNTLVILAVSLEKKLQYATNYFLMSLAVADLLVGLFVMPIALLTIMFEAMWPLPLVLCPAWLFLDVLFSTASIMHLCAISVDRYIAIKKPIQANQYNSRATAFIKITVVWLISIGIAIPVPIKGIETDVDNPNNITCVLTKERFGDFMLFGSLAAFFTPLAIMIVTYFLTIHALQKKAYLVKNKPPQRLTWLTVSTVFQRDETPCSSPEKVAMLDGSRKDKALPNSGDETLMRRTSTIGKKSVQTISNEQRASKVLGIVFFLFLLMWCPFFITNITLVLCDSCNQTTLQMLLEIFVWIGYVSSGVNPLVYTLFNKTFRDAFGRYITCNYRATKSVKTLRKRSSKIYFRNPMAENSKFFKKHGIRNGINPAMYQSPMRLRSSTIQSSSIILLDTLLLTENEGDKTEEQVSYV
Chain of Beta-1 adrenergic receptor (P08588 whole entry): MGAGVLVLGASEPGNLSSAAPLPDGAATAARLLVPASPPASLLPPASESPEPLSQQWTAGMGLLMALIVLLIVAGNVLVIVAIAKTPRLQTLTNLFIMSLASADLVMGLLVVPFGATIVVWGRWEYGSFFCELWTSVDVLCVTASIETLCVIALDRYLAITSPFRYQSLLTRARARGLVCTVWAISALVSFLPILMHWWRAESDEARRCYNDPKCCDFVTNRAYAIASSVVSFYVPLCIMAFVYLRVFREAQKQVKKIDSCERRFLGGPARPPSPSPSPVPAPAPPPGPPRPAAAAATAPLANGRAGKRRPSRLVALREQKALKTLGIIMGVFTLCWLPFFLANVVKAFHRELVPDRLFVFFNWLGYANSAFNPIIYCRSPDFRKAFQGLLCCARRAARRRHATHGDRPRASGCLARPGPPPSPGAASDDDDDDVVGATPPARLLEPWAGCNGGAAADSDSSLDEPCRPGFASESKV
Chain of Voltage-gated inwardly rectifying potassium channel KCNH2 (Q12809 whole entry): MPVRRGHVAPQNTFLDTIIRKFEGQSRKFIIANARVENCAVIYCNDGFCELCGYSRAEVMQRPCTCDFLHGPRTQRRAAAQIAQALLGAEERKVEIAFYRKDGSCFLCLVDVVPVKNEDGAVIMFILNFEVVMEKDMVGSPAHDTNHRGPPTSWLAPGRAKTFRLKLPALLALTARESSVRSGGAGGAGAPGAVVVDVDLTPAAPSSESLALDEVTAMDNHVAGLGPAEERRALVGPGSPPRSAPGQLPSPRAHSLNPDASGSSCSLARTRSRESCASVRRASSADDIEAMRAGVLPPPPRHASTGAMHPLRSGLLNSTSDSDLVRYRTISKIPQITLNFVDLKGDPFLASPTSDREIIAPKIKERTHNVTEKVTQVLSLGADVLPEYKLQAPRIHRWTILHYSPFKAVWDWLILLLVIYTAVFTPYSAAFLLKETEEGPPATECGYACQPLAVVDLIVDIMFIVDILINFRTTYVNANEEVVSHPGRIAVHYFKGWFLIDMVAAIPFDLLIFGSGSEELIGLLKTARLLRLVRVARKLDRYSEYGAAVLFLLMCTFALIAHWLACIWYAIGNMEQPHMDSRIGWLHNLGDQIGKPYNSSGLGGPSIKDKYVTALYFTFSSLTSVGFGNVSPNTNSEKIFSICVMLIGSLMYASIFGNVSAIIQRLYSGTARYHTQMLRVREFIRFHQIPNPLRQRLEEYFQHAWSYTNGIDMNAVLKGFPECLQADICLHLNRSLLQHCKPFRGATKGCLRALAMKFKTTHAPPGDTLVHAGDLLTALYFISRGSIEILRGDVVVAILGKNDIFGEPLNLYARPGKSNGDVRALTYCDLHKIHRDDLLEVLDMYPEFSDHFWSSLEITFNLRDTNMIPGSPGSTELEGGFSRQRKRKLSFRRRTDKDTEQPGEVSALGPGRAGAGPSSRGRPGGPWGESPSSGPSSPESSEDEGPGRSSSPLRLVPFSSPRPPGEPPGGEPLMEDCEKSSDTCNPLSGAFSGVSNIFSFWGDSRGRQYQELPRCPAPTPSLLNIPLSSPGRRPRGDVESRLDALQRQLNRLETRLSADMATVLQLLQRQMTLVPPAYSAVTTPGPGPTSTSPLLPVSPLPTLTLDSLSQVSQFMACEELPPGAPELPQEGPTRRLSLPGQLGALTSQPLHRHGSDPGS
Chain of Gamma-aminobutyric acid receptor subunit alpha-1 (P62813 whole entry): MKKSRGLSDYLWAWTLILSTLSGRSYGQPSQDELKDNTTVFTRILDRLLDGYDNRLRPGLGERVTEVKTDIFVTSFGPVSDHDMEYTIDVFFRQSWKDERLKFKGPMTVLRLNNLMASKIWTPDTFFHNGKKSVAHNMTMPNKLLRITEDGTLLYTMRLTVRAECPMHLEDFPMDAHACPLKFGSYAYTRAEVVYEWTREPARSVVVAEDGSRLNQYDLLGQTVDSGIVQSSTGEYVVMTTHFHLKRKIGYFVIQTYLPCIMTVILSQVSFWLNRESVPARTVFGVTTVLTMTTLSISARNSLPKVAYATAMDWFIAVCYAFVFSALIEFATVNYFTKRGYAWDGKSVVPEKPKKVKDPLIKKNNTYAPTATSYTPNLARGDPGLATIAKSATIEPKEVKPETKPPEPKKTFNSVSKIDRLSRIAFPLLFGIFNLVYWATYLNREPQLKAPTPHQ

Take `Oc1cc(O)c(Cl)cn1`: the concentration at half-maximal activity (AC50) in assay [1], in [2], in assay [3], in assay [4], in assay [5] and in assay [6] was > 30 µM each time. Also, the AC50 in [7], in [8], in assay [9], in assay [10], in [11] and in [12] was > 30 µM throughout. For the same compound, the AC50 in [13] and in assay [14] was > 30 µM in each case.
On to `O=C(CCCN1CCC(O)(c2ccc(Br)cc2)CC1)c1ccc(F)cc1` [BROMPERIDOL], for which the AC50 was > 30 µM in assay [1]; 6.9 µM in assay [3]; > 30 µM in assay [4]; > 30 µM in assay [5]; > 30 µM in assay [6]; > 30 µM in [7]. In addition, the AC50 was > 30 µM in [8]; > 30 µM in assay [9]; 0.23 µM in assay [10]; > 30 µM in assay [11]; > 30 µM in [12]; > 30 µM in assay [13]. For the same compound, the AC50 in assay [14] was > 30 µM.
On to `CN1CCN=C(c2ccccc2)c2cc(Cl)ccc21` [MEDAZEPAM], for which the concentration at half-maximal activity (AC50) in [1], in assay [2], in assay [3], in assay [4], in assay [5] and in [6] was > 30 µM in each case. Also, the AC50 in assay [7] was > 30 µM; in [8], 5.2 µM; in assay [9], > 30 µM; in assay [11] it was > 30 µM; in assay [13], > 30 µM; in [14] it was > 30 µM.
Regarding `CO[C@H]1C[C@H](O[C@H]2CC[C@@]3(C)[C@H](CC[C@@H]4[C@@H]3CC[C@]3(C)[C@@H](C5=CC(=O)OC5)[C@@H](OC(C)=O)C[C@]43O)C2)O[C@@H](C)[C@@H]1O` [OLEANDRIN], the half-maximal activity concentration (AC50) in assay [2], in assay [4], in assay [5], in assay [7], in assay [8] and in assay [9] was > 30 µM throughout. In addition, the half-maximal activity concentration (AC50) in assay [10] and in assay [11] was > 30 µM each time.
On to `O=c1[nH]c2ccccc2n1CCCN1CCN(C(c2ccccc2)c2ccccc2)CC1` [OXATOMIDE], for which the AC50 is > 30 µM in assay [1]; > 30 µM in assay [2]; 8.8 µM in assay [3]; > 30 µM in assay [4]; > 30 µM in [5]; > 30 µM in assay [6]. The AC50 in assay [7] is > 30 µM; in assay [8], > 30 µM; in [9], > 30 µM; in assay [10], 0.026 µM; in assay [11] it was 6.6 µM; in assay [13], > 30 µM. Further, the concentration at half-maximal activity (AC50) in assay [14] is > 30 µM.
On to `C[C@]12C/C(=C/O)C(=O)C[C@@H]1CC[C@@H]1[C@@H]2CC[C@@]2(C)[C@H]1CC[C@]2(C)O` [OXYMETHOLONE], for which the AC50 in assay [1], in assay [2], in assay [3], in assay [4], in assay [5] and in assay [6] was > 30 µM each time. For the same compound, the AC50 in assay [7], in assay [8], in assay [9], in assay [10], in [11] and in [13] was > 30 µM throughout. Further, the concentration at half-maximal activity (AC50) in assay [14] was > 30 µM.
Turning to `COc1cc2[nH]c(C)c(CCN3CCN(c4ccccc4)CC3)c2cc1OC` [OXYPERTINE], the AC50 in assay [1] is 26 µM; in assay [2] it was 7.4 µM; in [3] it was > 30 µM; in assay [4] it was > 30 µM; in assay [5], > 30 µM; in assay [6] it was > 30 µM. Also, the concentration at half-maximal activity (AC50) was > 30 µM in assay [7]; 9.8 µM in assay [8]; > 30 µM in assay [9]; > 30 µM in assay [11]; > 30 µM in assay [12]; > 30 µM in [13]. In addition, the concentration at half-maximal activity (AC50) in assay [14] is > 30 µM.
For the compound `CC1=C(/C=C/C(C)=C/C=C/C(C)=C/CO)C(C)(C)CCC1` [RETINOL], the AC50 in [1] is > 10 µM; in [2], > 10 µM; in assay [3] it was > 10 µM; in [4], > 10 µM; in assay [5], > 30 µM; in assay [6], > 10 µM. Further, the AC50 in assay [7] was > 10 µM; in assay [8], > 30 µM; in [9] it was > 10 µM; in [11], > 10 µM; in assay [12] it was > 10 µM; in [13] it was > 10 µM. The AC50 in assay [14] is > 10 µM.
`CCN1CCCC1CNC(=O)c1cc(S(=O)(=O)CC)ccc1OC` (configuration not stated) [SULTOPRIDE]: the AC50 in assay [1], in [2], in [3], in [4], in assay [5] and in assay [6] was > 30 µM each time. Moreover, the AC50 in assay [7] was > 30 µM; in assay [8] it was > 30 µM; in [9], > 30 µM; in assay [10], 3.5 µM; in [11], > 30 µM; in [13] it was > 30 µM. The half-maximal activity concentration (AC50) in [14] was > 30 µM.
Turning to `C=CCN1CCc2nc(N)sc2CC1` [TALIPEXOLE], the half-maximal activity concentration (AC50) in assay [1], in [3], in assay [4], in [5], in assay [6] and in assay [7] was > 30 µM each time. For the same compound, the half-maximal activity concentration (AC50) in assay [8], in assay [9], in assay [10], in assay [11], in assay [12] and in assay [13] was > 30 µM each time. Also, the half-maximal activity concentration (AC50) in assay [14] is > 30 µM.
`CC(C)(C)NCC(O)c1ccccc1Cl` (configuration not stated) [TULOBUTEROL]: the AC50 in [2], in [3], in assay [4], in assay [5], in assay [6] and in assay [7] was > 30 µM each time. Also, the AC50 in assay [8], in assay [9], in assay [10], in assay [11], in assay [13] and in assay [14] was > 30 µM throughout.
